Experimental data published in patent US6346602B1, “Peptide mimics of the cytokine receptor common γ chain and methods and compositions for making and using the same” (Thomas Jefferson University, priority 1997, dated 2002).

Test system: IL-4 induced proliferation of CTLL cell line
Test: CTLL Proliferation Assay (IL-4)
Format: cell-based, murine
Conditions: CTLL cells, exogenous IL-4 (mIL-4), titred peptide; FIGS. 1A-1D, 2
Method: CTLL Proliferation Assay: The murine IL-2- and IL-4-responsive CTLL cell line was used to assess the ability of the gamma chain peptides to inhibit the binding of these cytokines to their respective receptors. The cell line proliferates in responses to exogenously added cytokine and inhibition of this proliferation by the peptides would be a result of blocking the cytokines from interacting with their receptors. Briefly, 5000 CTLL cells are added to the wells of a 96 well microtitre plate. Either 10 U/ml r-mIL-2 or 1 ng/ml r-mIL-4 are added to these wells along with titred amounts of the indicated peptides. Cultures are incubated at 37° C. for 24 hours and pulsed with ^3H-TdR for the final 6 hours to indicate amount of proliferation. Wells containing no peptide are deemed the positive response and well containing no peptide and no cytokine are deemed the background (bkg) proliferation. A percent response is calculated as follows: (CPM experimental-CPM bkg)/CPM positive response-CPM bkg). All data are expressed in this manner.

Row | Sequence | effect on cell proliferation in response to exogenous IL-4
1 | CNHEPRFLSC [gamma-4] | inhibits cell proliferation
2 | CLNLQNLC [gamma-5] | inhibits cell proliferation
